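Interpolation was linear, between the two tested concentrations surrounding the appropriate level; five concentrations were tested over 48 hours in 96-well plates. GI50 is the concentration that inhibits growth by half.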 The source made the active and inactive calls. Cut-off read from the data, not from the text of the source: active = GI50 up to about 1.1 µM and inactive = higher.
Legend:
Assay in all cases: NCI-60 cell line screen, 48 h
TK-10 = test system: TK-10
ACHN = test system: ACHN
MDA-MB-435 = test system: MDA-MB-435
SR = test system: SR
SF-539 = test system: SF-539
RXF 393 = test system: RXF 393
NCI/ADR-RES = test system: NCI/ADR-RES
SF-295 = test system: SF-295
M14 = test system: M14
HT-29 = test system: HT-29
NCI-H460 = test system: NCI-H460
SW-620 = test system: SW-620
NCI-H522 = test system: NCI-H522
MDA-MB-231 = test system: MDA-MB-231
OVCAR-3 = test system: OVCAR-3
HCT-116 = test system: HCT-116
786-0 = test system: 786-0
NCI-H226 = test system: NCI-H226
SNB-75 = test system: SNB-75
UACC-62 = test system: UACC-62

SMILES	GI50 (TK-10)	GI50 (ACHN)	GI50 (MDA-MB-435)	GI50 (SR)	GI50 (SF-539)	GI50 (RXF 393)	GI50 (NCI/ADR-RES)	GI50 (SF-295)	GI50 (M14)	GI50 (HT-29)	GI50 (NCI-H460)	GI50 (SW-620)	GI50 (NCI-H522)	GI50 (MDA-MB-231)	GI50 (OVCAR-3)	GI50 (HCT-116)	GI50 (786-0)	GI50 (NCI-H226)	GI50 (SNB-75)	GI50 (UACC-62)
CCCCCCOc1ccc(C(=O)NOCc2ccccc2)cc1	> 100 µM (inactive)	> 100 µM (inactive)	41.3 µM (inactive)	18.5 µM (inactive)	> 100 µM (inactive)	> 100 µM (inactive)	> 100 µM (inactive)	> 100 µM (inactive)	> 100 µM (inactive)	> 100 µM (inactive)	> 100 µM (inactive)	> 100 µM (inactive)	> 100 µM (inactive)	> 100 µM (inactive)	> 100 µM (inactive)	> 100 µM (inactive)	> 100 µM (inactive)	> 100 µM (inactive)	> 100 µM (inactive)	> 100 µM (inactive)
O=c1[nH]/c(=C/c2ccc(OCc3ccccc3)cn2)c(=O)[nH]/c1=C/c1ccc([N+](=O)[O-])cc1	> 100 µM (inactive)	> 94.6 µM (inactive)	> 100 µM (inactive)	> 58.3 µM (inactive)	> 61.4 µM (inactive)	> 80.2 µM (inactive)	> 100 µM (inactive)	49.1 µM (inactive)	> 100 µM (inactive)	> 100 µM (inactive)	> 100 µM (inactive)	> 100 µM (inactive)	> 100 µM (inactive)	> 89.3 µM (inactive)	> 100 µM (inactive)	> 100 µM (inactive)	> 100 µM (inactive)	> 100 µM (inactive)	27.1 µM (inactive)	> 100 µM (inactive)
COc1cccc(C(=O)O[C@H]2[C@@H]3[C@]4(OC(C)=O)CO[C@@H]4C[C@H](O)[C@@]3(C)C(=O)[C@H](OC(C)=O)C3=C(C)[C@@H](OC(=O)[C@H](O)[C@@H](NC(=O)OC(C)(C)C)c4ccco4)C[C@]2(O)C3(C)C)c1	0.00527 µM (active)	0.139 µM (active)	< 0.00375 µM (active)	< 0.00375 µM (active)	< 0.00375 µM (active)	0.00726 µM (active)	0.0107 µM (active)	< 0.00375 µM (active)	< 0.00375 µM (active)	< 0.00375 µM (active)	< 0.00375 µM (active)	< 0.00375 µM (active)	< 0.00375 µM (active)	< 0.00375 µM (active)	< 0.00375 µM (active)	< 0.00375 µM (active)	0.00522 µM (active)	0.36 µM (active)	< 0.00375 µM (active)	0.0442 µM (active)
Oc1cc2c(cc1C(c1ccc3c(c1)OCO3)N1CCN(C(c3ccc4c(c3)OCO4)c3cc4c(cc3O)OCO4)CC1)OCO2 (stereo not given)	20.2 µM (inactive)	13.7 µM (inactive)	17.7 µM (inactive)	3.61 µM (inactive)	16.7 µM (inactive)	26.2 µM (inactive)	19.2 µM (inactive)	16.7 µM (inactive)	14.4 µM (inactive)	5.26 µM (inactive)	38.6 µM (inactive)	12.7 µM (inactive)	14.2 µM (inactive)	15.7 µM (inactive)	17.1 µM (inactive)	15.7 µM (inactive)	13.1 µM (inactive)	16.1 µM (inactive)	3.46 µM (inactive)	14.4 µM (inactive)
COC(=O)c1ccccc1C1CN=NC12Cc1cc(C)ccc1C2=O (stereo not given)	16.6 µM (inactive)	> 100 µM (inactive)	62.4 µM (inactive)	> 100 µM (inactive)	> 100 µM (inactive)	> 100 µM (inactive)	49.9 µM (inactive)	> 100 µM (inactive)	> 100 µM (inactive)	> 100 µM (inactive)	> 100 µM (inactive)	> 100 µM (inactive)	63.8 µM (inactive)	21.5 µM (inactive)	57 µM (inactive)	> 100 µM (inactive)	> 100 µM (inactive)	> 100 µM (inactive)	71 µM (inactive)	> 100 µM (inactive)
CN(C)C1(c2cc3ccccc3s2)CCCCC1	47.2 µM (inactive)	51.2 µM (inactive)	35.7 µM (inactive)	18 µM (inactive)	50.1 µM (inactive)	25.5 µM (inactive)	44.1 µM (inactive)	26.6 µM (inactive)	17.5 µM (inactive)	33 µM (inactive)	29.2 µM (inactive)	0.125 µM (active)	16.7 µM (inactive)	65.6 µM (inactive)	48.6 µM (inactive)	33.9 µM (inactive)	22.2 µM (inactive)	44.9 µM (inactive)	32.6 µM (inactive)	20.5 µM (inactive)
Cc1c(C(=O)O)n2c(C)nnc2c2ccccc12	> 100 µM (inactive)	> 100 µM (inactive)	> 100 µM (inactive)	> 100 µM (inactive)	> 100 µM (inactive)	> 100 µM (inactive)	> 100 µM (inactive)	> 100 µM (inactive)	> 100 µM (inactive)	> 100 µM (inactive)	> 100 µM (inactive)	> 100 µM (inactive)	> 100 µM (inactive)	> 100 µM (inactive)	> 100 µM (inactive)	> 100 µM (inactive)	> 100 µM (inactive)	> 100 µM (inactive)	36 µM (inactive)	> 100 µM (inactive)
O=C1CCCC2=C1CC1=C(CCCC1=O)N2c1ccc(-c2ccccc2)cc1	> 75 µM (inactive)	> 100 µM (inactive)	> 100 µM (inactive)	> 100 µM (inactive)	> 72.6 µM (inactive)	> 24.6 µM (inactive)	> 100 µM (inactive)	> 100 µM (inactive)	> 100 µM (inactive)	> 100 µM (inactive)	> 100 µM (inactive)	> 100 µM (inactive)	> 100 µM (inactive)	> 100 µM (inactive)	> 100 µM (inactive)	> 100 µM (inactive)	> 69.7 µM (inactive)	> 100 µM (inactive)	> 47.4 µM (inactive)	> 66.5 µM (inactive)
Cc1cc(OCc2nc(N)nc(N)c2-c2ccc(Cl)c(Cl)c2)ccc1[N+](=O)[O-]	0.401 µM (active)	0.0746 µM (active)	0.0721 µM (active)	0.0237 µM (active)	0.451 µM (active)	0.794 µM (active)	0.404 µM (active)	0.0678 µM (active)	0.104 µM (active)	0.0927 µM (active)	0.0462 µM (active)	0.235 µM (active)	0.893 µM (active)	0.384 µM (active)	0.282 µM (active)	0.0502 µM (active)	0.104 µM (active)	8.67 µM (inactive)	2.1 µM (inactive)	0.0585 µM (active)
Clc1cccc(-c2nc3cccc4c3n2Cc2ncccc2-4)c1	42.2 µM (inactive)	8.2 µM (inactive)	> 100 µM (inactive)	24 µM (inactive)	41.8 µM (inactive)	21.9 µM (inactive)	> 100 µM (inactive)	41.6 µM (inactive)	> 100 µM (inactive)	> 100 µM (inactive)	6.67 µM (inactive)	> 100 µM (inactive)	> 100 µM (inactive)	94.2 µM (inactive)	32.1 µM (inactive)	> 100 µM (inactive)	17.6 µM (inactive)	11.8 µM (inactive)	9.04 µM (inactive)	56.6 µM (inactive)
COc1ccc(/C=N/c2nc3cc4sc(/N=C/c5ccc(OC)cc5)nc4cc3s2)cc1	30.9 µM (inactive)	43.7 µM (inactive)	29.7 µM (inactive)	22.9 µM (inactive)	> 100 µM (inactive)	> 57.9 µM (inactive)	23.4 µM (inactive)	43.6 µM (inactive)	58.2 µM (inactive)	23.1 µM (inactive)	5 µM (inactive)	12.8 µM (inactive)	10.4 µM (inactive)	98.6 µM (inactive)	23.6 µM (inactive)	18.4 µM (inactive)	> 76.4 µM (inactive)	24.9 µM (inactive)	> 100 µM (inactive)	27.3 µM (inactive)
C=CCNC1=C2C[C@@H](C)C[C@@H](OC)C(OC(=O)CCCN(C)C)[C@H](C)/C=C(\C)[C@@H](OC(N)=O)[C@H](OC)/C=C\C=C(/C)C(=O)NC(=CC1=O)C2=O (stereo not given in full)	11.6 µM (inactive)	7.48 µM (inactive)	10.6 µM (inactive)	2.59 µM (inactive)	6.73 µM (inactive)	3.98 µM (inactive)	21.8 µM (inactive)	7.57 µM (inactive)	8.53 µM (inactive)	2.7 µM (inactive)	2.99 µM (inactive)	4.48 µM (inactive)	8.07 µM (inactive)	5.45 µM (inactive)	3.3 µM (inactive)	7.13 µM (inactive)	12.4 µM (inactive)	14.6 µM (inactive)	10.9 µM (inactive)	12.4 µM (inactive)
CC(=O)C1=C(O)/C(=C\c2ccco2)OC1=O	> 10 µM (inactive)	> 10 µM (inactive)	> 10 µM (inactive)	> 10 µM (inactive)	> 10 µM (inactive)	> 10 µM (inactive)	> 10 µM (inactive)	> 10 µM (inactive)	> 10 µM (inactive)	> 10 µM (inactive)	> 10 µM (inactive)	> 10 µM (inactive)	> 10 µM (inactive)	> 10 µM (inactive)	> 10 µM (inactive)	> 10 µM (inactive)	> 10 µM (inactive)	> 10 µM (inactive)	> 10 µM (inactive)	> 10 µM (inactive)

From ChEMBL document CHEMBL1201862, “PubChem BioAssay data set” (2004)
